# Test results from PMC9882606, “Rationally designed inhibitors of the Musashi protein-RNA interaction by hotspot mimicry” (Research Square, 2023).
# Tests used:
# MSI1 RRM1 = biological target: T1, MSI1 RRM1 (Homo sapiens, UniProt O43347); experiment: Fluorescence polarization (FP) competition assay with fluorescein-labeled RNA; format: binding; details: MSI1 RRM1
# T1 sequence (O43347 20-110 limits assumed): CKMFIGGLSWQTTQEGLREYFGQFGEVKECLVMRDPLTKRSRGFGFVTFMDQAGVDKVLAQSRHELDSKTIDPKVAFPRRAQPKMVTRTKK
# From the text: Figure 1: The hotspot mimicry approach. […] (A) The structure of the MSI1 / RNA complex. The RNA (sticks) wraps around the protein (spheres). Two adjacent bases, A106 and G107 (magenta), are buried in a shallow pocket on the protein surface. (B) An interaction map is generated from the RNA in the complex, by collecting deeply buried bases (magenta) and atoms involved in intermolecular hydrogen bonds (acceptors shown in yellow, donors in green). […] Positive values indicate diminished binding when a given base is replaced with an abasic site, showing that A106 and G107 contribute more than the other nearby bases to the binding affinity of this interaction. (E) The hotspot pharmacophore serves as a template for ligand-based screening, searching for compounds that would mimic the three-dimensional features of the pharmacophore. The screen led to the identification of compound R12, which mimics the geometry of the rings and provides three of the four desired hydrogen bonding groups. (F) R12 competes with fluorescein-labeled RNA for MSI1 binding, as observed through a fluorescence polarization assay. […] (G) Superposition of the hotspot pharmacophore back onto the protein structure illustrates the interactions that should be captured by an ideal ligand: stacking against three aromatic sidechains, and four intermolecular hydrogen bonds.
# We applied our “hotspot mimicry” approach to the structure of Musashi-1 RRM1 bound to cognate RNA [54], and found a single hotspot pharmacophore derived from an adjacent pair of buried bases, Adenine106 and Guanine107 (Figure 1a). […] This pharmacophore captures both the aromatic stacking and the hydrogen bonding of the RNA hotspot through its inclusion of ring moieties and donor/acceptor positions, respectively (Figure 1c). To test whether these two particular bases indeed serve as a hotspot of the MSI1 RRM1 / RNA interaction, we used a fluorescence polarization (FP) competition assay (see Supporting Methods) to measure the binding affinity of RNA variants that maintained the backbone but lacked individual bases. […] In contrast, introduction of an abasic site at other nearby positions affected binding much less. Confirmation that A106 and G107 serve as hotspot bases of this interaction thus provided experimental evidence supporting the pharmacophore selection from our computational approach.
# MSI2 = experiment: Immunoblot of cellular MSI2 protein levels in PC9 cells; format: cell-based, human; details: PC9, 20 μM compound for 1, 3, 6, 24, or 48 hours
# From the text: To explore the effect of these MSI2 inhibitors in a cancer-relevant cellular context, we selected two MSI2-dependent cancer cell lines: non-small cell lung cancer cell line PC9 and leukemia cell line K562 [73, 98–101]. Upon treatment of PC9 cells with Ro, R12–8–44–3, or negative control R12-neg, we found at multiple time points that cellular MSI2 protein levels were unchanged (Figure 6a). To confirm target engagement, we therefore adapted the cellular thermal shift assay (CETSA). To determine experimental conditions, we first harvested cells and incubated at increasing temperatures; we then removed aggregated protein by centrifugation and used Western blotting to probe the amount of MSI2 remaining in the soluble fraction (Figure 6b, Figure S9). Having established 49 °C as the midpoint of the transition under these (non-equilibrium) conditions, we then treated cells with our candidate MSI2 inhibitor for 3 h, and heated to 49 °C.
# Figure 6: Direct cellular engagement of MSI2 interaction by R12–44–3. (A) Immunoblot from PC9 cells treated with Ro (positive control), R12-neg (negative control), or R12–8–44–3. Cells were treated with 20 μM compound for 1, 3, 6, 24, or 48 hours. MSI2 protein abundance was then quantified and normalized to untreated sample. One representative image is shown; quantification is presented as the average ± S.E.M. from 3 independent replicates. (B) Thermal-induced aggregation of cellular MSI2 in the PC9 cell line. Cells were briefly incubated at temperatures between 40 °C to 67 °C, then centrifuged and the amount of MSI2 remaining in the soluble fraction was quantified by Western blotting. […] One representative image is shown; quantification is presented as the average ± S.E.M. from 3 independent replicates, normalized first to beta-actin and then to DMSO control. […] One representative image is shown; quantification is presented as the average ± S.E.M. from 3 independent replicates, normalized first to beta-actin and then to DMSO control. […]
# PC9 cells = experiment: CellTiter-Blue, combination with osimertinib, PC9; format: cell-based, human; details: PC9, 3-day treatment, osimertinib with 10 μM compound vs osimertinib alone
# From the text: With respect to non-small cell lung cancer (NSCLC) specifically, overexpression of MSI2 has been identified as a mechanism underlying resistance to inhibitors of EGFR – and more importantly, depletion of MSI2 by RNA knockdown increased sensitivity to the third-generation EGFR inhibitor osimertinib both in vitro and in vivo [73, 74]. Despite lack of sensitivity to R12–8–44–3 alone, we therefore hypothesized that R12–8–44–3 would sensitize PC9 cells (an EGFR-mutant lung cancer cell line) to osimertinib.
smiles,measurement,setting,value
Cc1cc(C(=O)OCc2nc(N)c3c(C)c(C)sc3n2)c(N)cc1F [R12–8–44–3],improvement in potency over parent compound,MSI1 RRM1; FP assay,2 fold
same,IC50,MSI1 RRM1; FP competition,9.7 µM
same,cellular MSI2 protein levels,MSI2,unchanged
same,cell viability (CellTiter-Blue) in combination with osimertinib,PC9 cells,small but statistically significant decrease in cell viability
